From patent US20260034236A1, “NEW DRUG COMPLEX” (KOWA COMPANY, LTD., priority 2022, published 2026)

Experiments:
[1] = system: mouse colon cancer cell line C26; experiment: Drug efficacy test in C26 tumor-bearing nude mice; format: in vivo; settings: after 14 days from administration; tail vein, 3 times every other day; 8 mg/kg (3.9 mg/kg in terms of Pt)
Method: A tumor-bearing model obtained by subcutaneously transplanting a mouse colon cancer cell line C26 (American Type Culture Collection) into a female nude mouse (BALB/c-nu/nu, 7 weeks old; Charles River Laboratories Japan, Inc.) was used for a drug efficacy test.
A mouse colon cancer cell line C26 subcultured in a CO2 incubator was suspended in a liquid medium (Dulbecco's Modified Eagle's Medium-high glucose, Sigma-Aldrich Co. LLC), and injected subcutaneously in the back of nude mice so that the number of cells per mouse was 1×10^6/100 μL. Thereafter, the nude mice were raised for about 1 week, and administration of a drug was started when the average value of the tumor volume had grown to about 30 mm^3. A DACHPt-encapsulating SCNP (DACHPt-encapsulating SCNP prepared using the copolymer of Example 70) was administered into the tail vein (3 times every other day), and the antitumor effect was evaluated based on the tumor volume (4 to 5 mice per 1 group). As a comparison, an oxaliplatin solution (Comparative Example 1) was used, and it was administered in the same manner. The dose of each preparation was 8 mg/kg (3.9 mg/kg in terms of Pt) as the maximum administrable dose for the oxaliplatin solution, and 3 mg/kg in terms of Pt for the DACHPt-encapsulating SCNP. […]

[2] = system: CD20 antigen-positive human B-cell lymphoma-derived Raji cells; experiment: Cytotoxic test (CellTiter-Glo), CD20 antigen-positive cells; format: cell-based; settings: high expression of CD20, cultured 4 days, read-out: IC50(nmol/L) Raji (High expression of CD20)
Method: (§1) CD20 antigen-positive human B-cell lymphoma-derived Raji cells or CD20 antigen-negative human T-lymphoblastic leukemia-derived MOLT-4 cells were adjusted to a cell concentration of 5.0×10^4 cells/mL with the RPMI1640 medium, and 50 μL each was added to the 96-well microplate for cell culture, then cultured overnight. On the next day, 50 μL of the evaluation specimen diluted with the RPMI medium was separately added to the microplate, and the cells were cultured for 4 days at 37° C. under 5% CO2. After the culturing, CellTiter-Glo™ Luminescent Cell Viability Assay (Promega Corporation) was added to the microplate, and the mixture was stirred and left to stand at room temperature for 10 minutes. The light emission amount was then measured with a plate reader (Molecular Devices, LLC.). The cell viability and IC50 value were calculated.

[3] = system: CD20 antigen-negative human T-lymphoblastic leukemia-derived MOLT-4 cells; experiment: Cytotoxic test (CellTiter-Glo), CD20 antigen-negative cells; format: cell-based; settings: cultured 4 days, read-out: IC50(nmol/L) MOLT-4 (CD20 negative)
Method: as §1

| Molecule | T/C (ratio of the tumor volume of the drug administration group to that of the control group) [1] | IC50 [2] [nmol/L] | IC50 [3] [nmol/L] |
| --- | --- | --- | --- |
| O=C1[O][Pt]2([NH][C@@H]3CCCC[C@H]3[NH]2)[O]C1=O [Comparative Example 1, oxaliplatin] | 1.1 | – | – |
| rituximab [Comparative Example 4] | – | > 69 | > 69 |
